Measured values: PubChem BioAssay (NCI)
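Test compounds were applied to cells in 96-well plates for 48 hours at 5 doses. Definition used: TGI = concentration required for complete inhibition of growth.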

What was measured:
Assay in all cases: NCI anticancer screen, dose series, 48 h
SNB-19 CNS = system: SNB-19 CNS
NCI/ADR-RES ovarian = system: NCI/ADR-RES ovarian
BT-549 breast = system: BT-549 breast
OVCAR-5 ovarian = system: OVCAR-5 ovarian
HS 578T breast = system: HS 578T breast
CCRF-CEM leukemia = system: CCRF-CEM leukemia
NCI-H23 lung = system: NCI-H23 lung
SN12C renal = system: SN12C renal
HCT-116 colon = system: HCT-116 colon
786-0 renal = system: 786-0 renal
HOP-92 NSCLC = system: HOP-92 NSCLC
MCF7 breast = system: MCF7 breast
T-47D breast = system: T-47D breast
SF-295 CNS = system: SF-295 CNS
UO-31 renal = system: UO-31 renal
EKVX NSCLC = system: EKVX NSCLC
SF-268 CNS = system: SF-268 CNS
HT29 colon = system: HT29 colon
OVCAR-4 ovarian = system: OVCAR-4 ovarian
M14 melanoma = system: M14 melanoma
RXF 393 renal = system: RXF 393 renal
MALME-3M melanoma = system: MALME-3M melanoma
A498 renal = system: A498 renal
A549 NSCLC = system: A549 NSCLC
SNB-75 CNS = system: SNB-75 CNS
OVCAR-8 ovarian = system: OVCAR-8 ovarian
MOLT-4 leukemia = system: MOLT-4 leukemia
SK-OV-3 ovarian = system: SK-OV-3 ovarian
NCI-H522 lung = system: NCI-H522 lung
MDA-MB-231 breast = system: MDA-MB-231 breast
TK-10 renal = system: TK-10 renal
LOX IMVI melanoma = system: LOX IMVI melanoma
UACC-62 melanoma = system: UACC-62 melanoma
MDA-N = system: MDA-N
UACC-257 melanoma = system: UACC-257 melanoma
U251 CNS = system: U251 CNS
HOP-62 NSCLC = system: HOP-62 NSCLC
SK-MEL-2 melanoma = system: SK-MEL-2 melanoma
IGROV1 ovarian = system: IGROV1 ovarian
OVCAR-3 ovarian = system: OVCAR-3 ovarian
HCC-2998 colon = system: HCC-2998 colon
KM12 colon = system: KM12 colon
DU-145 prostate = system: DU-145 prostate
HL-60(TB) leukemia = system: HL-60(TB) leukemia
SK-MEL-28 melanoma = system: SK-MEL-28 melanoma
SK-MEL-5 melanoma = system: SK-MEL-5 melanoma
MDA-MB-435 = system: MDA-MB-435
PC-3 prostate = system: PC-3 prostate
K-562 leukemia = system: K-562 leukemia
CAKI-1 renal = system: CAKI-1 renal
SW-620 colon = system: SW-620 colon
NCI-H226 lung = system: NCI-H226 lung
COLO 205 colon = system: COLO 205 colon
ACHN renal = system: ACHN renal
NCI-H460 lung = system: NCI-H460 lung
SF-539 CNS = system: SF-539 CNS
HCT-15 colon = system: HCT-15 colon
RPMI-8226 leukemia = system: RPMI-8226 leukemia
SR leukemia = system: SR leukemia

Question: Which results are given for C(=C(c1ccc(OC2CCCCO2)cc1)c1ccc(OC2CCCCO2)cc1)c1ccccc1 (stereo unspecified)?
Answer: TGI (SNB-19 CNS): 2540 nM; TGI (NCI/ADR-RES ovarian): 2920 nM; TGI (BT-549 breast): 1500 nM; TGI (OVCAR-5 ovarian): 2250 nM; TGI (HS 578T breast): 4440 nM; TGI (CCRF-CEM leukemia): 6660 nM; TGI (NCI-H23 lung): 2240 nM; TGI (SN12C renal): 2470 nM; TGI (HCT-116 colon): 1640 nM; TGI (786-0 renal): 1620 nM; TGI (HOP-92 NSCLC): 1960 nM; TGI (MCF7 breast): 1430 nM; TGI (T-47D breast): 2140 nM; TGI (SF-295 CNS): 2510 nM; TGI (UO-31 renal): 2260 nM; TGI (EKVX NSCLC): 1830 nM; TGI (SF-268 CNS): 5310 nM; TGI (HT29 colon): 1280 nM; TGI (OVCAR-4 ovarian): 1750 nM; TGI (M14 melanoma): 2000 nM; TGI (RXF 393 renal): 2250 nM; TGI (MALME-3M melanoma): 2240 nM; TGI (A498 renal): 2640 nM; TGI (A549 NSCLC): 1690 nM; TGI (SNB-75 CNS): 2130 nM; TGI (OVCAR-8 ovarian): 2640 nM; TGI (MOLT-4 leukemia): > 100000 nM; TGI (SK-OV-3 ovarian): 2640 nM; TGI (NCI-H522 lung): 2400 nM; TGI (MDA-MB-231 breast): 1520 nM; TGI (TK-10 renal): 2350 nM; TGI (LOX IMVI melanoma): 1140 nM; TGI (UACC-62 melanoma): 1980 nM; TGI (MDA-N): 1750 nM; TGI (UACC-257 melanoma): 1660 nM; TGI (U251 CNS): 2340 nM; TGI (HOP-62 NSCLC): 2300 nM; TGI (SK-MEL-2 melanoma): 2770 nM; TGI (IGROV1 ovarian): 1710 nM; TGI (OVCAR-3 ovarian): 1750 nM; TGI (HCC-2998 colon): 1970 nM; TGI (KM12 colon): 677 nM; TGI (DU-145 prostate): 2110 nM; TGI (HL-60(TB) leukemia): 1190 nM; TGI (SK-MEL-28 melanoma): 2410 nM; TGI (SK-MEL-5 melanoma): 1780 nM; TGI (MDA-MB-435): 1700 nM; TGI (PC-3 prostate): 1590 nM; TGI (K-562 leukemia): 2010 nM; TGI (CAKI-1 renal): 1920 nM; TGI (SW-620 colon): 1620 nM; TGI (NCI-H226 lung): 3170 nM; TGI (COLO 205 colon): 1600 nM; TGI (ACHN renal): 2240 nM; TGI (NCI-H460 lung): 1790 nM; TGI (SF-539 CNS): 3240 nM

Question: Which TGI (SNB-19 CNS) does the source give for CCN(CC)CCNC(=O)c1cc2cc(NC(=O)c3cc4cc([N+](=O)[O-])ccc4[nH]3)ccc2[nH]1 here?
Answer: The TGI was over 100000 nM.

Question: What about the TGI (NCI/ADR-RES ovarian) of the same compound?
Answer: The TGI was over 100000 nM.

Question: And the TGI (BT-549 breast)?
Answer: Its TGI is over 100000 nM.

Question: And the TGI (OVCAR-5 ovarian)?
Answer: Its TGI is over 100000 nM.

Question: What about the TGI (NCI-H23 lung) of the same compound?
Answer: Its TGI is over 100000 nM.

Question: And the TGI (SN12C renal)?
Answer: Its TGI is over 100000 nM.

Question: And the TGI (HCT-116 colon)?
Answer: The TGI was over 100000 nM.

Question: And the TGI (HOP-92 NSCLC)?
Answer: Its TGI is over 50700 nM.

Question: And the TGI (MCF7 breast)?
Answer: The TGI was over 100000 nM.

Question: And the TGI (T-47D breast)?
Answer: Its TGI is over 100000 nM.

Question: What about the TGI (SF-295 CNS) of the same compound?
Answer: The TGI was 65600 nM.

Question: And the TGI (UO-31 renal)?
Answer: Its TGI is over 100000 nM.

Question: And the TGI (EKVX NSCLC)?
Answer: The TGI was over 100000 nM.

Question: What about the TGI (SF-268 CNS) of the same compound?
Answer: The TGI was over 100000 nM.

Question: What about the TGI (HT29 colon) of the same compound?
Answer: The TGI was over 100000 nM.

Question: What about the TGI (OVCAR-4 ovarian) of the same compound?
Answer: Its TGI is over 100000 nM.

Question: And the TGI (M14 melanoma)?
Answer: The TGI was over 100000 nM.

Question: And the TGI (RXF 393 renal)?
Answer: The TGI was over 100000 nM.

Question: What about the TGI (A498 renal) of the same compound?
Answer: The TGI was over 82700 nM.

Question: And the TGI (A549 NSCLC)?
Answer: The TGI was over 100000 nM.

Question: And the TGI (SNB-75 CNS)?
Answer: The TGI was over 100000 nM.

Question: What about the TGI (OVCAR-8 ovarian) of the same compound?
Answer: Its TGI is over 100000 nM.

Question: And the TGI (MOLT-4 leukemia)?
Answer: Its TGI is over 100000 nM.

Question: And the TGI (SK-OV-3 ovarian)?
Answer: Its TGI is 71400 nM.

Question: And the TGI (MDA-MB-231 breast)?
Answer: Its TGI is over 100000 nM.

Question: What about the TGI (TK-10 renal) of the same compound?
Answer: Its TGI is 48600 nM.

Question: What about the TGI (LOX IMVI melanoma) of the same compound?
Answer: Its TGI is over 100000 nM.

Question: And the TGI (UACC-62 melanoma)?
Answer: The TGI was 87500 nM.

Question: What about the TGI (MDA-N) of the same compound?
Answer: Its TGI is over 100000 nM.

Question: What about the TGI (UACC-257 melanoma) of the same compound?
Answer: Its TGI is over 87100 nM.

Question: What about the TGI (HOP-62 NSCLC) of the same compound?
Answer: The TGI was over 100000 nM.

Question: What about the TGI (SK-MEL-2 melanoma) of the same compound?
Answer: The TGI was over 100000 nM.

Question: What about the TGI (IGROV1 ovarian) of the same compound?
Answer: The TGI was over 100000 nM.

Question: What about the TGI (OVCAR-3 ovarian) of the same compound?
Answer: The TGI was over 57000 nM.

Question: What about the TGI (HCC-2998 colon) of the same compound?
Answer: The TGI was over 73600 nM.

Question: And the TGI (HCT-15 colon)?
Answer: Its TGI is over 100000 nM.

Question: And the TGI (DU-145 prostate)?
Answer: The TGI was 31800 nM.

Question: And the TGI (SK-MEL-28 melanoma)?
Answer: The TGI was 66800 nM.

Question: And the TGI (SK-MEL-5 melanoma)?
Answer: The TGI was over 100000 nM.

Question: And the TGI (MDA-MB-435)?
Answer: Its TGI is over 100000 nM.

Question: And the TGI (PC-3 prostate)?
Answer: The TGI was over 100000 nM.

Question: What about the TGI (CAKI-1 renal) of the same compound?
Answer: The TGI was over 100000 nM.

Question: What about the TGI (SW-620 colon) of the same compound?
Answer: The TGI was over 58000 nM.

Question: What about the TGI (RPMI-8226 leukemia) of the same compound?
Answer: The TGI was 9630 nM.

Question: What about the TGI (NCI-H226 lung) of the same compound?
Answer: Its TGI is over 87300 nM.

Question: And the TGI (COLO 205 colon)?
Answer: Its TGI is 28900 nM.

Question: What about the TGI (ACHN renal) of the same compound?
Answer: Its TGI is over 100000 nM.

Question: And the TGI (NCI-H460 lung)?
Answer: Its TGI is over 100000 nM.

Question: And the TGI (SF-539 CNS)?
Answer: The TGI was over 49700 nM.

Question: And the TGI (SR leukemia)?
Answer: Its TGI is over 100000 nM.
